From PubChem BioAssay AID1259407 (Chemical Carcinogenesis Research Information System (CCRIS), 2018)
The source made the active and inactive calls. The rule behind the calls is not given here.

Test system: CCRIS mutagenicity, Ames/micronucleus/aberration tests
Assay: CCRIS mutagenicity studies

Cc1cccn2c1nc1ccc(N)nc12
mutagenic call (Test System: AMES SALMONELLA TYPHIMURIUM, Strain/Indicator: TA98, Metabolic Activation: MOUSE, LIVER, MICROSOMES, TCDD, Method: STANDARD PLATE): active; positive | mutagenic call (Test System: AMES SALMONELLA TYPHIMURIUM, Strain/Indicator: TA98, Metabolic Activation: MOUSE, LIVER, MICROSOMES, Method: STANDARD PLATE): active; positive | mutagenic call (Test System: AMES SALMONELLA TYPHIMURIUM, Strain/Indicator: TA98, Metabolic Activation: RAT LIVER, CYTOSOL, AROCLOR 1254, Method: STANDARD PLATE): inactive; negative | mutagenic call (Test System: AMES SALMONELLA TYPHIMURIUM, Strain/Indicator: TA98, Metabolic Activation: RAT LIVER, MICROSOMES, AROCLOR 1254, Method: STANDARD PLATE): active; positive | mutagenic call (Test System: AMES SALMONELLA TYPHIMURIUM, Strain/Indicator: TA98, Metabolic Activation: RAT, LIVER, MICROSOMES, 1-METHYLCHRYSENE, Method: PREINCUBATION): active; positive | mutagenic call (Test System: AMES SALMONELLA TYPHIMURIUM, Strain/Indicator: TA98, Metabolic Activation: RAT, LIVER, MICROSOMES, 2-METHYLCHRYSENE, Method: PREINCUBATION): active; positive | mutagenic call (Test System: AMES SALMONELLA TYPHIMURIUM, Strain/Indicator: TA98, Metabolic Activation: RAT, LIVER, MICROSOMES, 3-METHYLCHRYSENE, Method: PREINCUBATION): active; positive | mutagenic call (Test System: AMES SALMONELLA TYPHIMURIUM, Strain/Indicator: TA98, Metabolic Activation: RAT, LIVER, MICROSOMES, 4-METHYLCHRYSENE, Method: PREINCUBATION): active; positive | mutagenic call (Test System: AMES SALMONELLA TYPHIMURIUM, Strain/Indicator: TA98, Metabolic Activation: RAT, LIVER, MICROSOMES, 5-METHYLCHRYSENE, Method: PREINCUBATION): active; positive | mutagenic call (Test System: AMES SALMONELLA TYPHIMURIUM, Strain/Indicator: TA98, Metabolic Activation: RAT, LIVER, MICROSOMES, 6-AMINOCHRYSENE, Method: PREINCUBATION): active; positive | mutagenic call (Test System: AMES SALMONELLA TYPHIMURIUM, Strain/Indicator: TA98, Metabolic Activation: RAT, LIVER, MICROSOMES, 6-METHYLCHRYSENE, Method: PREINCUBATION): active; positive | mutagenic call (Test System: AMES SALMONELLA TYPHIMURIUM, Strain/Indicator: TA98, Metabolic Activation: RAT, LIVER, MICROSOMES, BENZO[B]CHRYSENE, Method: PREINCUBATION): active; positive | mutagenic call (Test System: AMES SALMONELLA TYPHIMURIUM, Strain/Indicator: TA98, Metabolic Activation: RAT, LIVER, MICROSOMES, BENZO[C]CHRYSENE, Method: PREINCUBATION): active; positive | mutagenic call (Test System: AMES SALMONELLA TYPHIMURIUM, Strain/Indicator: TA98, Metabolic Activation: RAT, LIVER, S-9, AROCLOR 1254, Method: PREINCUBATION): active; positive | mutagenic call (Test System: AMES SALMONELLA TYPHIMURIUM, Strain/Indicator: TA100, Metabolic Activation: RAT, LIVER, S-9, AROCLOR 1254, Method: PREINCUBATION): active; positive | mutagenic call (Test System: AMES SALMONELLA TYPHIMURIUM, Strain/Indicator: TA1538, Metabolic Activation: RAT, LIVER, MICROSOMES, 2-ACETYLAMINOFLUORENE, Method: STANDARD PLATE): active; positive | mutagenic call (Test System: AMES SALMONELLA TYPHIMURIUM, Strain/Indicator: TA1538, Metabolic Activation: RAT, LIVER, MICROSOMES, 4-ACETYLAMINOFLUORENE, Method: STANDARD PLATE): active; positive | mutagenic call (Test System: AMES SALMONELLA TYPHIMURIUM, Strain/Indicator: TA1538, Metabolic Activation: RAT, LIVER, MICROSOMES, Method: STANDARD PLATE): active; positive | mutagenic call (Test System: AMES SALMONELLA TYPHIMURIUM, Strain/Indicator: YG1012, Metabolic Activation: RAT, LIVER, S-9, PHENOBARBITAL AND 5,6-BENZOFLAVONE, Method: PREINCUBATION): active; positive | mutagenic call (Test System: AMES SALMONELLA TYPHIMURIUM, Strain/Indicator: YG1019, Metabolic Activation: RAT LIVER S-9, AROCLOR, Method: PREINCUBATION): active; positive | mutagenic call (Test System: AMES SALMONELLA TYPHIMURIUM, Strain/Indicator: YG1019, Metabolic Activation: RAT, LIVER, S-9, PHENOBARBITAL AND 5,6-BENZOFLAVONE, Method: PREINCUBATION): active; positive | mutagenic call (Test System: AMES SALMONELLA TYPHIMURIUM, Strain/Indicator: YG1020, Metabolic Activation: RAT, LIVER, S-9, PHENOBARBITAL AND 5,6-BENZOFLAVONE, Method: PREINCUBATION): active; positive | mutagenic call (Test System: AMES SALMONELLA TYPHIMURIUM, Strain/Indicator: YG1024, Metabolic Activation: RAT, LIVER, S-9, PHENOBARBITAL AND 5,6-BENZOFLAVONE, Method: PREINCUBATION): active; positive | mutagenic call (Test System: AMES SALMONELLA TYPHIMURIUM, Strain/Indicator: YG1025, Metabolic Activation: RAT, LIVER, S-9, PHENOBARBITAL AND 5,6-BENZOFLAVONE, Method: PREINCUBATION): active; positive | mutagenic call (Test System: AMES SALMONELLA TYPHIMURIUM, Strain/Indicator: YG1029, Metabolic Activation: RAT, LIVER, S-9, PHENOBARBITAL AND 5,6-BENZOFLAVONE, Method: PREINCUBATION): active; positive | mutagenic call (Test System: UDS HUMAN HEPATOCYTES, Strain/Indicator: THY INCORP, Metabolic Activation: NONE, Method: AUTORADIOGRAPHY): active; positive | mutagenic call (Test System: UDS MOUSE HEPATOCYTES, Strain/Indicator: THY INCORP, Metabolic Activation: NONE, Method: AUTORADIOGRAPHY): active; positive | mutagenic call (Test System: UDS RAT HEPATOCYTES, Strain/Indicator: THY INCORP, Metabolic Activation: NONE, Method: AUTORADIOGRAPHY): inactive; negative

OCC(CBr)(CBr)CBr
mutagenic call (Test System: AMES SALMONELLA TYPHIMURIUM, Strain/Indicator: TA98, Metabolic Activation: HAMSTER, LIVER, S-9, AROCLOR 1254 (10%), Method: PREINCUBATION): inactive; negative | mutagenic call (Test System: AMES SALMONELLA TYPHIMURIUM, Strain/Indicator: TA98, Metabolic Activation: NONE, Method: PREINCUBATION): inactive; negative | mutagenic call (Test System: AMES SALMONELLA TYPHIMURIUM, Strain/Indicator: TA98, Metabolic Activation: RAT, LIVER, S-9, AROCLOR 1254 (10%), Method: PREINCUBATION): inactive; negative | mutagenic call (Test System: AMES SALMONELLA TYPHIMURIUM, Strain/Indicator: TA100, Metabolic Activation: HAMSTER, LIVER, S-9, AROCLOR 1254 (10%), Method: PREINCUBATION): inactive; negative | mutagenic call (Test System: AMES SALMONELLA TYPHIMURIUM, Strain/Indicator: TA100, Metabolic Activation: NONE, Method: PREINCUBATION): inactive; negative | mutagenic call (Test System: AMES SALMONELLA TYPHIMURIUM, Strain/Indicator: TA100, Metabolic Activation: RAT, LIVER, S-9, AROCLOR 1254 (10%), Method: PREINCUBATION): inactive; negative | mutagenic call (Test System: AMES SALMONELLA TYPHIMURIUM, Strain/Indicator: TA1535, Metabolic Activation: HAMSTER, LIVER, S-9, AROCLOR 1254 (10%), Method: PREINCUBATION): active; positive | mutagenic call (Test System: AMES SALMONELLA TYPHIMURIUM, Strain/Indicator: TA1535, Metabolic Activation: NONE, Method: PREINCUBATION): inactive; negative | mutagenic call (Test System: AMES SALMONELLA TYPHIMURIUM, Strain/Indicator: TA1535, Metabolic Activation: RAT, LIVER, S-9, AROCLOR 1254 (10%), Method: PREINCUBATION): inactive; negative | mutagenic call (Test System: AMES SALMONELLA TYPHIMURIUM, Strain/Indicator: TA1537, Metabolic Activation: HAMSTER, LIVER, S-9, AROCLOR 1254 (10%), Method: PREINCUBATION): inactive; negative | mutagenic call (Test System: AMES SALMONELLA TYPHIMURIUM, Strain/Indicator: TA1537, Metabolic Activation: NONE, Method: PREINCUBATION): inactive; negative | mutagenic call (Test System: AMES SALMONELLA TYPHIMURIUM, Strain/Indicator: TA1537, Metabolic Activation: RAT, LIVER, S-9, AROCLOR 1254 (10%), Method: PREINCUBATION): inactive; negative

O=[N+]([O-])c1ccccc1SSC(Cl)=C(Cl)Cl
mutagenic call (Test System: AMES SALMONELLA TYPHIMURIUM, Strain/Indicator: TA100(DNP6), Metabolic Activation: NONE, Method: PREINCUBATION): active; positive | mutagenic call (Test System: AMES SALMONELLA TYPHIMURIUM, Strain/Indicator: TA100(NR), Metabolic Activation: NONE, Method: PREINCUBATION): active; positive

O=C(CCCCl)N=c1sn(C(=O)CCCCl)c2ccc([N+](=O)[O-])cc12
mutagenic call (Test System: AMES SALMONELLA TYPHIMURIUM, Strain/Indicator: TA100, Metabolic Activation: S-9, Method: STANDARD PLATE): active; positive

COc1cccc2c1[C@H](CO)N1[C@@H](C#N)[C@@H]3C[C@@H](C(=O)O)[C@H]([C@@H]1C2)N3C
mutagenic call (Test System: Mouse lymphoma, Strain/Indicator: L5178Y (tk+/tk-), Metabolic Activation: None, Method: Suspension/plate): active; positive | mutagenic call (Test System: Mouse lymphoma, Strain/Indicator: L5178Y (tk+/tk-), Metabolic Activation: Rat, Liver, S-9, Aroclor 1254, Method: Suspension/plate): active; positive
